Patent US20070269793A1, “Bioactive Boxes for Cellular Cultures” (priority 2003, published 2007)

Columns and labels:
Format in all cases: cell-based, murine
B16 C3 line = assay: Proliferation, cell count (Malassez hemocytometer); settings: B16 C3 on PS in the presence of MSH (same in its absence), 48 hours
Protocol: (§1) The cells are cultured in medium supplemented by 10% foetal calf serum, 1% L-Glutamine and 0.5% antibiotics (penicillin, streptomycin).
(§2) —b—proliferation: 10,000 cells are seeded per cm^2. The cells are counted (Malassez hemocytometer) after culture for 24 and 48 hours.
(§3) It should be noted that the B16 F0 and B16 F10 lines proliferate more on cellulose that the B16 C3 line, which is non-metastatic. The number of B16 F0 and F10 cells is multiplied by 3 on cellulose. It is multiplied by 6 on PS, in the presence or absence of MSH 10^−7 M melanin-stimulating hormone used as a second control.

B16 F0 and B16 F10 lines = assay: Proliferation, cell count (Malassez hemocytometer); settings: B16 F0 and F10 on PS in the presence of MSH 10^−7 M (same in its absence)
Protocol: as §1, §2, §3

Fn = Fn synthesis (indirect immunolabelling); settings: three melanoma lines cultured on PS with MSH
B16 melanoma cells = assay: Calcium dependence of cell aggregation; settings: absence of Ca^++; 3 lines, after 1 and 3 hours

Row | Substance | number of cells multiplied by (B16 C3 line) | number of cells multiplied by (B16 F0 and B16 F10 lines) | Fn synthesis (Fn) | percentage of cells isolated (B16 melanoma cells)
1 | melanin-stimulating hormone [MSH] | 2 | 6 | increase in Fn synthesis | 
2 | monencin |  |  |  | very significantly increased
